In BindingDB's records for doi:10.1016/j.bioorg.2017.03.013 (Birla Institute of Technology, 2017):

The molecules below were run against Gag-Pol polyprotein (Human immunodeficiency virus type 1 group M subtype B (isolate HXB2), UniProt P04585) (assay: HIV-1 RT In-Vitro Assay).
Experimental: The reaction mixture was set with template primer complex, RT enzyme and dNTPs in a lysis buffer with or without inhibitors. The reaction mixture was incubated at 37 °C for 1 h and then transferred to streptavidine-coated microtitre plate (MTP). The biotin-labeled dNTPs that were incorporated in the template due to activity of RT, bound to streptavidine. The unbound dNTPs were washed using wash buffer and anti-DIG-POD was added to the MTP. The DIG-labeled dNTPs incorporated in the template were bound to an anti-DIG-POD antibody. The unbound anti-DIG-POD was washed again with washing buffer and the peroxide substrate (ABST) was added to the MTP. A colored reaction product was produced during the cleavage of the substrate catalyzed by a peroxide enzyme. The absorbance of the sample was determined as an optical density (OD) at 405 nm using a micro titer plate ELISA reader.

First: Cc1ccc(C(=O)N2c3ccccc3NC(=O)CC2C)cc1 (centres undefined) [5-(4-methylbenzoyl)-4-methyl-1,3,4,5-tetrahydro-2H-1,5-benzodiazepin-2-one (A4)]
Second: CC1CC(=O)Nc2ccccc2N1C(=O)c1ccc(F)cc1 (centres undefined) [5-(4-fluorobenzoyl)-4-methyl-1,3,4,5-tetrahydro-2H-1,5-benzodiazepin-2-one (A9)]
The IC50 of the first is higher: greater than 100 µM for the first, 25 µM for the second.

Going from `CC1CC(=O)Nc2ccccc2N1C(=O)c1ccccc1F` (centres undefined) [5-(2-fluorobenzoyl)-4-methyl-1,3,4,5-tetrahydro-2H-1,5-benzodiazepin-2-one (A7)] to `CC1CC(=O)Nc2ccccc2N1C(=O)c1ccccc1Cl` (centres undefined) [5-(2-chlorobenzoyl)-4-methyl-1,3,4,5-tetrahydro-2H-1,5-benzodiazepin-2-one (A10)], the IC50 falls from greater than 100 µM to 8.62 µM.

Compared with `Cc1cccc(C(=O)N2c3ccccc3NC(=O)CC2C)c1` (centres undefined) [5-(3-methylbenzoyl)-4-methyl-1,3,4,5-tetrahydro-2H-1,5-benzodiazepin-2-one (A3)], `CC1CC(=O)Nc2ccccc2N1C(=O)c1cccc(Cl)c1` (centres undefined) [5-(3-chlorobenzoyl)-4-methyl-1,3,4,5-tetrahydro-2H-1,5-benzodiazepin-2-one (A11)] is 3.8-fold lower in IC50: 26.4 µM for the first, 6.87 µM for the second.

First: CC1CC(=O)Nc2ccccc2N1C(=O)c1ccc(Cl)cc1 (centres undefined) [5-(4-chlorobenzoyl)-4-methyl-1,3,4,5-tetrahydro-2H-1,5-benzodiazepin-2-one (A12)]
Second: CC1CC(=O)Nc2ccccc2N1C(=O)c1ccc(Br)cc1 (centres undefined) [5-(4-bromobenzoyl)-4-methyl-1,3,4,5-tetrahydro-2H-1,5-benzodiazepin-2-one (A14)]
The IC50 of the first is 1.8-fold lower: 38.3 µM for the first, 68.7 µM for the second. The first is the more potent here.

Going from `CC1CC(=O)Nc2ccccc2N1C(=O)c1ccccc1` (centres undefined) [5-(benzoyl)-4-methyl-1,3,4,5-tetrahydro-2H-1,5-benzodiazepin-2-one (A1)] to `CC1CC(=O)Nc2ccccc2N1C(=O)c1cccc(F)c1` (centres undefined) [5-(3-fluorobenzoyl)-4-methyl-1,3,4,5-tetrahydro-2H-1,5-benzodiazepin-2-one (A8)], the IC50 rises from 17.5 µM to 76.3 µM (4.4-fold). The first is the more potent here.

Compared with `CC1CC(=O)Nc2ccccc2N1C(=O)c1ccccc1Br` (centres undefined) [5-(2-bromobenzoyl)-4-methyl-1,3,4,5-tetrahydro-2H-1,5-benzodiazepin-2-one (A13)], `Cc1ccccc1C(=O)N1c2ccccc2NC(=O)CC1C` (centres undefined) [5-(2-methylbenzoyl)-4-methyl-1,3,4,5-tetrahydro-2H-1,5-benzodiazepin-2-one (A2)] is 6.5-fold lower in IC50: 92.5 µM for the first, 14.3 µM for the second.

Going from `COc1ccc(C(=O)N2c3ccccc3NC(=O)CC2C)cc1` (centres undefined) [5-(4-methoxybenzoyl)-4-methyl-1,3,4,5-tetrahydro-2H-1,5-benzodiazepin-2-one (A6)] to `COc1cccc(C(=O)N2c3ccccc3NC(=O)CC2C)c1` (centres undefined) [5-(3-methoxybenzoyl)-4-methyl-1,3,4,5-tetrahydro-2H-1,5-benzodiazepin-2-one (A5)], the IC50 rises from 54.6 µM to 87.9 µM (1.6-fold).
